Results as given in EPA's ToxRefDB 2.

Legend:
[1] = test system: dog; details: Chronic toxicity, beagle, Oral, Feed, dose end: 12 month, group: systemic
[2] = test system: dog; details: Subchronic oral toxicity in nonrodent, beagle, Feed, dose end: 90 day, group: systemic
[3] = test system: rat; details: Subchronic oral toxicity in rodents, wistar, Feed, dose end: 91 day, group: systemic, systemic / clinical chemistry / alanine aminotransferase (alt/sgpt) / alanine aminotransferase (alt/sgpt) + systemic / clinical chemistry / …
[4] = test system: rat; details: Combined chronic toxicity/carcinogenicity; wistar; Oral; Feed; dose end: 2 year; group: systemic; systemic / clinical chemistry / alanine aminotransferase (alt/sgpt) / alanine aminotransferase (alt/sgpt) + systemic / clinical chemistry / …
[5] = test system: mouse; details: Carcinogenicity, b6c3f1, Oral, Feed, dose end: 2 year, group: systemic
[6] = test system: dog; details: Subchronic oral toxicity in nonrodent, beagle, [Not Specified], dose end: 4 week, group: systemic, systemic / clinical chemistry / alanine aminotransferase (alt/sgpt) / alanine aminotransferase (alt/sgpt) + systemic / clinical chemistry / …
[7] = test system: dog; details: Chronic toxicity; beagle; Oral; Feed; dose end: 52 week; group: systemic; systemic / clinical chemistry / cholesterol / cholesterol + systemic / clinical chemistry / creatinine / creatinine + systemic / clinical …
[8] = test system: rat; details: Subchronic oral toxicity in rodents, wistar, Feed, dose end: 90 day, group: systemic
[9] = test system: rat; details: Prenatal developmental toxicity study, wistar, Oral, Gavage/Intubation, dose end: 15 GD
[10] = test system: rat; details: Multigenerational reproductive toxicity study, sprague dawley, Oral, Feed, dose end: 1 generation
[11] = test system: rat; details: Prenatal developmental toxicity study; other; Oral; Gavage/Intubation; dose end: 19 GD; group: developmental; developmental / developmental malformation / ureter / hydroureter
[12] = test system: mouse; details: Combined chronic toxicity/carcinogenicity, cd1, Oral, Feed, dose end: 104 week, group: systemic
[13] = test system: mouse; details: Multigenerational reproductive toxicity study; cd1; Oral; Feed; dose end: 1 generation; group: parental; systemic / in life observation / food consumption / food consumption
[14] = test system: rat; details: Combined chronic toxicity/carcinogenicity; sprague dawley; Oral; Feed; dose end: 118 week; group: systemic; systemic / in life observation / clinical signs / feces, discoloration
[15] = test system: rat; details: Prenatal developmental toxicity study, Osborne-Mendel, Oral, Water, dose end: 20 GD
[16] = test system: rat; details: Multigenerational reproductive toxicity study, sprague dawley, Oral, Feed, dose end: 2 generation
[17] = test system: rabbit; details: Prenatal developmental toxicity study, new zealand white, Oral, Gavage/Intubation, dose end: 19 GD
[18] = test system: dog; details: Chronic toxicity; beagle; Oral; Feed; dose end: 52 week; group: systemic; systemic / hematology / erythrocyte (rbc) count differential / erythrocyte (rbc) + systemic / hematology / platelet / platelet + systemic / …
[19] = test system: rat; details: Prenatal developmental toxicity study, sprague dawley, Oral, Gavage/Intubation, dose end: 15 GD
[20] = test system: rabbit; details: Prenatal developmental toxicity study, new zealand white, Oral, Gavage/Intubation, dose end: 18 GD
[21] = test system: rat; details: Combined chronic toxicity/carcinogenicity, sprague dawley, Oral, Feed, dose end: 24 month, group: systemic
[22] = systemic / clinical chemistry / cholesterol / cholesterol + systemic / clinical chemistry / creatinine / creatinine + systemic / clinical …
[23] = systemic / pathology microscopic / pituitary gland / cyst
[24] = systemic / clinical chemistry / [other] / [other]
[25] = systemic / clinical chemistry / [other] / [other] + systemic / clinical chemistry / alanine aminotransferase (alt/sgpt) / alanine …
[26] = systemic / hematology / blood clotting / blood clotting - clotting time + systemic / organ weight / kidney / absolute + systemic / organ …
[27] = group: developmental, developmental / developmental malformation / bone / incomplete ossification + developmental / developmental malformation / bone / …
[28] = group: maternal, systemic / in life observation / body weight / body weight gain + systemic / in life observation / food consumption / food consumption + …
[29] = group: offspring, developmental / developmental landmark / vaginal opening / vaginal opening + systemic / in life observation / clinical signs / nocturnal …
[30] = group: offspring, developmental / offspring survival late / [other] / [other] + developmental / developmental landmark / vaginal opening / vaginal opening + …
[31] = group: parental, systemic / in life observation / body weight / body weight
[32] = group: reproductive, reproductive / reproductive performance / pregnancy / pregnancy
[33] = systemic / organ weight / thyroid gland / absolute + systemic / organ weight / thyroid gland / relative to body weight
[34] = group: developmental, developmental / developmental malformation / bone / bipartite ossification + developmental / developmental malformation / bone / incomplete …
[35] = group: maternal, systemic / in life observation / water consumption / water consumption + reproductive / reproductive performance / reproductive performance …
[36] = group: offspring, systemic / in life observation / body weight / offspring (pup) weight
[37] = group: parental, systemic / in life observation / body weight / body weight + systemic / in life observation / body weight / body weight gain + systemic / in…
[38] = group: developmental, developmental / developmental malformation / bone / fused
[39] = group: maternal, systemic / in life observation / body weight / body weight gain
[40] = group: developmental, developmental / developmental malformation / bone / incomplete ossification
[41] = group: maternal, systemic / in life observation / clinical signs / alopecia + systemic / in life observation / clinical signs / blood around eyes and nose + …
[42] = group: developmental, developmental / developmental malformation / bone / delayed ossification + developmental / developmental malformation / bone / fused + …
[43] = group: maternal, reproductive / offspring survival early / live fetuses / live fetuses + systemic / organ weight / uterus / nos
[44] = systemic / clinical chemistry / calcium / calcium + systemic / clinical chemistry / protein / protein + systemic / in life observation / …
[45] = systemic / organ weight / liver / relative to body weight

## Cc1cc(Cl)ccc1OCC(=O)O [MCPA]
[1]; [22]
  LOAEL: 1.02 mg/kg/day
  NOAEL: 0.21 mg/kg/day
[1]; [23]
  LEL: 0.2 mg/kg/day
  NEL: < 0.2 mg/kg/day
[2]; [24]
  LEL: 3 mg/kg/day
  LOAEL: 3 mg/kg/day
[2]; [25]
  NEL: 1 mg/kg/day
  NOAEL: 1 mg/kg/day
[3]
  LEL: 177 mg/kg/day
  LOAEL: 177 mg/kg/day
  NEL: 34 mg/kg/day
  NOAEL: 34 mg/kg/day
[4]
  LEL: 5.7 mg/kg/day
  LOAEL: 5.7 mg/kg/day
  NEL: 1.4 mg/kg/day
  NOAEL: 1.4 mg/kg/day
[5]; systemic / in life observation / body weight / body weight
  LEL: 15.7 mg/kg/day
[5]; systemic / in life observation / body weight / body weight + systemic / pathology microscopic / kidney / casts protein + systemic / …
  NEL: 3.2 mg/kg/day
[5]; systemic / pathology microscopic / kidney / hyperplasia
  LOAEL: 19.5 mg/kg/day
[5]; systemic / pathology microscopic / kidney / hyperplasia + systemic / in life observation / body weight / body weight + systemic / organ …
  NOAEL: 3.9 mg/kg/day
[6]
  LEL: 8 mg/kg/day
  LOAEL: 8 mg/kg/day
  NEL: < 8 mg/kg/day
  NOAEL: < 8 mg/kg/day
[7]
  LEL: 1.02 mg/kg/day
  LOAEL: 1.02 mg/kg/day
  NEL: 0.21 mg/kg/day
  NOAEL: 0.21 mg/kg/day
[8]; [26]
  LOAEL: 32.6 mg/kg/day
  NEL: 3.6 mg/kg/day
  NOAEL: 10.9 mg/kg/day
[8]; systemic / organ weight / kidney / absolute
  LEL: 10.9 mg/kg/day
[9]; [27]
  LEL: 120 mg/kg/day
  LOAEL: 120 mg/kg/day
  NEL: 60 mg/kg/day
  NOAEL: 60 mg/kg/day
[9]; [28]
  LEL: 120 mg/kg/day
  LOAEL: 120 mg/kg/day
  NEL: 60 mg/kg/day
  NOAEL: 60 mg/kg/day

## COc1cc(S(=O)(=O)[O-])c(C)cc1N=Nc1c(O)ccc2cc(S(=O)(=O)[O-])ccc12.[Na+].[Na+]
[10]; [29]
  LEL: 1250 mg/kg/day
  NEL: < 1250 mg/kg/day
[10]; [30]
  LOAEL: > 5000 mg/kg/day
  NOAEL: ≥ 5000 mg/kg/day
[10]; [31]
  LEL: 1250 mg/kg/day
  LOAEL: > 5000 mg/kg/day
  NEL: < 1250 mg/kg/day
  NOAEL: ≥ 5000 mg/kg/day
[10]; [32]
  LEL: 1250 mg/kg/day
  LOAEL: > 5000 mg/kg/day
  NEL: < 1250 mg/kg/day
  NOAEL: ≥ 5000 mg/kg/day
[11]
  LEL: 200 mg/kg/day
  LOAEL: > 200 mg/kg/day
  NEL: 100 mg/kg/day
  NOAEL: ≥ 200 mg/kg/day
[12]; systemic / in life observation / food consumption / food consumption
  LEL: 1880 mg/kg/day
[12]; systemic / in life observation / food consumption / food consumption + systemic / pathology microscopic / lymph node / lymphoma nos
  NEL: 507 mg/kg/day
[12]; [33]
  LOAEL: > 7320 mg/kg/day
  NOAEL: ≥ 7320 mg/kg/day
[13]
  LEL: 2930 mg/kg/day
  LOAEL: > 2930 mg/kg/day
  NEL: 1420 mg/kg/day
  NOAEL: ≥ 2930 mg/kg/day
[14]
  LEL: 701 mg/kg/day
  LOAEL: > 2830 mg/kg/day
  NEL: 180 mg/kg/day
  NOAEL: ≥ 2830 mg/kg/day
[15]; [34]
  LEL: 260 mg/kg/day
  LOAEL: > 260 mg/kg/day
  NEL: < 260 mg/kg/day
  NOAEL: ≥ 260 mg/kg/day
[15]; [35]
  LEL: 260 mg/kg/day
  LOAEL: > 260 mg/kg/day
  NEL: < 260 mg/kg/day
  NOAEL: ≥ 260 mg/kg/day

## C#CCOS(=O)OC1CCCCC1Oc1ccc(C(C)(C)C)cc1 (stereo unspecified) [Propargite]
[16]; [36]
  LEL: 40 mg/kg/day
  LOAEL: 40 mg/kg/day
  NEL: 20 mg/kg/day
  NOAEL: 20 mg/kg/day
[16]; [37]
  LEL: 20 mg/kg/day
  LOAEL: 20 mg/kg/day
  NEL: 4 mg/kg/day
  NOAEL: 4 mg/kg/day
[17]; [38]
  LEL: 10 mg/kg/day
  LOAEL: 10 mg/kg/day
  NEL: 8 mg/kg/day
  NOAEL: 8 mg/kg/day
[17]; [39]
  LEL: 8 mg/kg/day
  LOAEL: 8 mg/kg/day
  NEL: 6 mg/kg/day
  NOAEL: 6 mg/kg/day
[18]
  LEL: 38 mg/kg/day
  LOAEL: 38 mg/kg/day
  NEL: 5 mg/kg/day
  NOAEL: 5 mg/kg/day
[19]; group: developmental, developmental / developmental malformation / bone / absent + developmental / developmental malformation / bone / small
  LOAEL: 25 mg/kg/day
[19]; [40]
  LEL: 6 mg/kg/day
  NEL: < 6 mg/kg/day
[19]; group: developmental, developmental / developmental malformation / bone / incomplete ossification + developmental / developmental malformation / bone / absent + …
  NOAEL: 6 mg/kg/day
[19]; [41]
  LEL: 105 mg/kg/day
  LOAEL: > 450 mg/kg/day
  NEL: 25 mg/kg/day
  NOAEL: ≥ 450 mg/kg/day
[20]; group: developmental, developmental / developmental malformation / bone / delayed ossification
  LEL: 6 mg/kg/day
[20]; [42]
  LOAEL: > 18 mg/kg/day
  NEL: 2 mg/kg/day
  NOAEL: ≥ 18 mg/kg/day
[20]; [43]
  LEL: 2 mg/kg/day
  NEL: < 2 mg/kg/day
[20]; group: maternal, systemic / in life observation / body weight / body weight gain + reproductive / offspring survival early / live fetuses / live fetuses
  LOAEL: 6 mg/kg/day
[20]; group: maternal, systemic / in life observation / body weight / body weight gain + reproductive / reproductive performance / implantations / implantations + …
  NOAEL: 2 mg/kg/day
[21]; [44]
  LOAEL: 19.2 mg/kg/day
  NOAEL: 3.83 mg/kg/day
[21]; [45]
  LEL: 2.95 mg/kg/day
  NEL: < 2.95 mg/kg/day
